Measurements reported in patent US20090233957A1, “(-)-BELOXEPIN AND METHODS FOR ITS SYNTHESIS AND USE” (priority 2008, published 2009).

What was measured:
[1] = system: rat 50° C. hot plate model; test: rat 50° C. hot plate assay; assay type: in vivo; details: for level of antinociception, positive control: 3 mg/kg SC, 30 min
Method: Protocol. Rats were treated with vehicle, 30 mg/kg IP of (−)-beloxepin, or 30 mg/kg IP of (+)-beloxepin and then were placed on a hot plate (50° C.) 30, 60, or 120 minutes after administration of the vehicle or beloxepin enantiomer. Rats treated with 3 mg/kg SC of morphine and tested 30 min post-treatment were used as a positive control in these experiments.

[2] = system: pain intensity in study completers; details: cited from earlier work
[3] = target: T1, cloned human 5HT2A receptor (Homo sapiens, UniProt P28223); test: 5HT2A receptor binding assay, [3H]ketanserin; details: HEK-293 membranes
T1 construct: expressed in transfected cells; host or cells: HEK-293 cells
T1 sequence (P28223 whole entry): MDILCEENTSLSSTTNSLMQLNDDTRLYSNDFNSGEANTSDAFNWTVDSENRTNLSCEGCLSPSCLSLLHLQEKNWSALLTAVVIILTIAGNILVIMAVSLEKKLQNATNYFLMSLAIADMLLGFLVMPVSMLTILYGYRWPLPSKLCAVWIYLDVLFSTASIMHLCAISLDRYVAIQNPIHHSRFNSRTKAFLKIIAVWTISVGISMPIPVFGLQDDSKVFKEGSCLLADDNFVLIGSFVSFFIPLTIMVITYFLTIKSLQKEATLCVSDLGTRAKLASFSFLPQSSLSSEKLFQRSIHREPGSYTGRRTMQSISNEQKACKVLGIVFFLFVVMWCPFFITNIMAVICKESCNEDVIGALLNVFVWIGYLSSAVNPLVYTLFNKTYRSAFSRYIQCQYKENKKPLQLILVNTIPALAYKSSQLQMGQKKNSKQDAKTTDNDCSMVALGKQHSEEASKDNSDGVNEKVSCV
Method: For the 5HT2A receptor binding assay, [^3H]ketanserin (0.5 nM) was incubated for 60 min at 22° C. with membranes prepared from HEK-293 cells heterologously expressing the cloned human 5-HT2A receptor according to the method of Bonhaus et al., 1995, Brit. J. Pharmacol. 115:622-628. Various concentrations of test compound were added and bound radioactivity was determined by scintillation counting. Non-specific binding was determined in the presence of 1.0 μM unlabeled ketanserin. The Ki value for the test compound was determined using standard methods.

L5 SNL rats = test: L5 Single Nerve Ligation model of neuropathic pain, tactile allodynia (von Frey); assay type: in vivo, rat
Method: Protocol. The antiallodynic activity of (−)-beloxepin was tested in vivo using the L5—Single Nerve Ligation model of non-nociceptive neuropathic pain as described in LaBuda & Little, 2005, J. Neurosci. Methods 144:175-181. The test animals were placed in a Plexiglas chamber (10 cm×20 cm×25 cm) and habituated for 15 minutes. The chamber was positioned on top of a mesh screen so that von Frey monofilaments could be presented to the plantar surface of both hindpaws. Measurement of tactile sensitivity for each hind paw were obtained using the up/down method (Dixon, 1980, Annu. Rev. Pharmacol. Toxicol. 20:441-462) with seven Frey monofilaments (0.4, 1, 2, 4, 6, 8 and 15 grams). Each trial started with a von Frey force of 2 grams delivered to the right hind paw for approximately 1-2 seconds and then the left hind paw. If there was no withdrawal response, the next higher force was delivered. If there was a response, the next lower force was delivered. This procedure was performed until no response was made at the highest force (15 grams) or until four stimuli were administered following the initial response. The 50% paw withdrawal threshold for each paw was calculated using the following formula: [Xth]log=[vFr]log+ky, where [vFr] is the force of the last von Frey used, k=0.2249 which is the average interval (in log units) between the von Frey monofilaments, and y is a value that depends upon the pattern of withdrawal responses (Dixon, 1980, supra). […] Testing for tactile sensitivity was performed twice and the mean 50% withdrawal value assigned as the tactile sensitivity for the right and left paws for each animal.
Results. The antiallodynic effects produced by (−)-beloxepin (30 mg/kg IP) and (+)-beloxepin (30 mg/kg IP) in L5 SNL rats 8 days post surgery are illustrated in FIG. 1. In this experiment, at 8 days post surgery, rats were treated with vehicle or beloxepin enantiomers (30 mg/kg IP) and tested for tactile allodynia at 30 min post treatment. […] No side effects were observed following treatment with either enantiomer.
The antiallodynic effects produced by (−)-beloxepin (30 mg/kg IP) in L5 SNL rats 14 days post surgery are illustrated in FIG. 2. In this experiment, at 14 days post surgery, rats were treated with vehicle or (−)-beloxepin and tested for tactile allodynia at 30, 60, 120 and 240 min post treatment. Vehicle treated rats were tested at 30 min post treatment.
Protocol. A time course experiment was performed with (−)-beloxepin (60 mg/kg PO) in L5 SNL rats at 7 days post-surgery. Rats were tested at 30, 60, 120, and 240 minutes post-drug.
Protocol. A time course experiment was also performed with (+)-beloxepin (60 mg/kg PO) in L5 SNL rats at 14 days post-surgery. Rats were tested at 30, 60, 120, and 240 minutes post-drug.

[4] = target: T2, cloned human NE transporter (hNET) (Homo sapiens, UniProt P23975); test: NE transporter binding assay, [3H]nisoxetine
T2 construct: expressed in transfected cells; host or cells: CHO cells
T2 sequence (P23975 whole entry): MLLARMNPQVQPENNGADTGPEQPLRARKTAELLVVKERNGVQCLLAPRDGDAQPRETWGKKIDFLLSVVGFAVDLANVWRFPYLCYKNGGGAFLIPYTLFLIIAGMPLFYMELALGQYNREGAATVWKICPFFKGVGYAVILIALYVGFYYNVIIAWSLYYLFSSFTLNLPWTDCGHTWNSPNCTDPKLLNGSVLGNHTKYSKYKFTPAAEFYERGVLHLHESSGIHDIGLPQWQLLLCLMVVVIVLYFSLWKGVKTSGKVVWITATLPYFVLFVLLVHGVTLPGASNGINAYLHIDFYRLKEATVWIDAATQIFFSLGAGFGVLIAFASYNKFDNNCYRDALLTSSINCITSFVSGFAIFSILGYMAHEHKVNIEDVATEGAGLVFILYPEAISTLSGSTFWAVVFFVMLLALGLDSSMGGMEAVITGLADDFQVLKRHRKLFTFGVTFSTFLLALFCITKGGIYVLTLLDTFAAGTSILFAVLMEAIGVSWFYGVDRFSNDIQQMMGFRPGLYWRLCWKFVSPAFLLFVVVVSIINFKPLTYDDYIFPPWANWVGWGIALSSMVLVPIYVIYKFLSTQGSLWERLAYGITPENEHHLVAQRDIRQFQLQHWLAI
Method: Protocols. For the NE transporter binding assay, [^3H]nisoxetine (1.0 nM) was incubated with various concentrations of test compounds for 2 hours at 4° C. with membranes prepared from Chinese hamster ovary cells (CHO) cells heterologously expressing the cloned human NE transporter (hNET). Bound radioactivity was determined by scintillation spectroscopy.

[5] = system: rat hindpaw incision model; test: rat hindpaw incisional pain model, tactile allodynia; assay type: in vivo; details: 30 mg/kg IP, 24 hours post-surgery
Method: Protocol. A time course experiment was also performed with (−)-beloxepin in the hindpaw incision model. At 24 hours post-surgery, rats received vehicle or (−)-beloxepin (30 mg/kg IP). Rats were tested for tactile allodynia at 30, 60, 120 and 240 minutes after administration of (−)-beloxepin.
Protocol. Another time course experiment was performed with (+)-beloxepin in the hindpaw incision model. At 24 hours post-surgery, rats received vehicle or (+)-beloxepin (30 mg/kg IP). Rats were tested for tactile allodynia at 30, 60, 120 and 240 minutes after administration of (+)-beloxepin.

[6] = target: T3, cloned human 5HT2B receptor (Homo sapiens, UniProt P41595); test: 5HT2B receptor binding assay, [125I]DOI; details: CHO membranes
T3 construct: expressed in transfected cells; host or cells: CHO cells
T3 sequence (P41595 whole entry): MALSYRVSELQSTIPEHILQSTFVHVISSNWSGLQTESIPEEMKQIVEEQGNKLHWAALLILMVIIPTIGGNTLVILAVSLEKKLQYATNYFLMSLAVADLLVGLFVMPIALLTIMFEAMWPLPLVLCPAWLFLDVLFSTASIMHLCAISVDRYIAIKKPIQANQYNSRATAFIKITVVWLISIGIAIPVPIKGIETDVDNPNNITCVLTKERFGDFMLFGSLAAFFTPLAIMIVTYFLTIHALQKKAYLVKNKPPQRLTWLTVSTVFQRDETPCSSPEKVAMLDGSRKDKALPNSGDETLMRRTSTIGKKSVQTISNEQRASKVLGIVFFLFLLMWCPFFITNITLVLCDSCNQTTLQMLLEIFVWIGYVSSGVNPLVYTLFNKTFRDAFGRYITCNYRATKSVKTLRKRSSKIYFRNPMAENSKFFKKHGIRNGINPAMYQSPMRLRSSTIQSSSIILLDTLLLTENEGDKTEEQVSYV
Method: For the 5HT2B receptor binding assay, [^125I](±)[…] (DOI) (0.2 nM) was incubated for 15 min at 37° C. with membranes prepared from Chinese hamster ovary cells heterologously expressing the cloned human 5HT2B receptor according to the method of Choi et al., 1994, FEBS Lett 352:393-399. Various concentrations of test compound were added and bound radioactivity was determined by scintillation counting. Non-specific binding was determined in the presence of 1.0 μM unlabeled DOI. The Ki value for the test compound was determined using standard methods.

human recombinant CYP2D6 = target: T4, human recombinant CYP2D6 (Homo sapiens, UniProt P10635); test: CYP2D6 inhibition, MAMC substrate; assay type: in vitro ADME
T4 construct: purchased BD Bioscience
T4 sequence (P10635 whole entry): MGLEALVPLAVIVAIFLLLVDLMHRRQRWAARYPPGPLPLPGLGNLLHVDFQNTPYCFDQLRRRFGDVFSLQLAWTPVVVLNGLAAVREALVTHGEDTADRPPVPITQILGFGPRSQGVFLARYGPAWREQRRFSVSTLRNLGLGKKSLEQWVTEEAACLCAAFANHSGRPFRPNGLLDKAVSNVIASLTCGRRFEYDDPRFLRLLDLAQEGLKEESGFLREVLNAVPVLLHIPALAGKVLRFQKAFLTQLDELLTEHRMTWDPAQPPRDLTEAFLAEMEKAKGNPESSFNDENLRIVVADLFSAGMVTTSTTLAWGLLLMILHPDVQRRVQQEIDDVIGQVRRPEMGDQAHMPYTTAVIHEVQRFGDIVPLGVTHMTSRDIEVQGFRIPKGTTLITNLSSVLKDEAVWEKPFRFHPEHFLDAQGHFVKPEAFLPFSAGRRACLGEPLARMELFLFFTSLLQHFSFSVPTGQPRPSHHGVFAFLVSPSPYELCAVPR
Method: Protocol. […] The source of the enzyme was microsomes containing human recombinant CYP2D6 obtained from BD Bioscience. Conversion of MAMC to 7-hydroxy-4-(aminomethyl)coumarin was measured using a PerkinElmer Fusion with a 390 nm excitation filter and a 460 nm emission filter.

[7] = target: T5, cloned human 5HT2C receptor (Homo sapiens, UniProt P28335); test: 5HT2C receptor binding assay, [3H]mesulergine; details: CHO membranes
T5 construct: expressed in transfected cells; host or cells: CHO cells
T5 sequence (P28335 33-458): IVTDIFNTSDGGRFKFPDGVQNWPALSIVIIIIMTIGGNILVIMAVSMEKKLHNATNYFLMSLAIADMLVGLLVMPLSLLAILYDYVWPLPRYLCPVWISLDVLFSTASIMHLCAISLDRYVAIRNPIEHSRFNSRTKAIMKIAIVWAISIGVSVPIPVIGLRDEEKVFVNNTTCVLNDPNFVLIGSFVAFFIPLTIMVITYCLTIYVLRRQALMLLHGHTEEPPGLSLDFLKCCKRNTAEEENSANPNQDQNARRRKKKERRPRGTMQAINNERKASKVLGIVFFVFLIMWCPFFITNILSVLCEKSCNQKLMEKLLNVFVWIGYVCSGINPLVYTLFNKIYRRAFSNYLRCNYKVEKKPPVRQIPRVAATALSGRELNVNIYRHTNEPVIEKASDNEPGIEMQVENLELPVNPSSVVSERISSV
Method: For the 5HT2C receptor binding assay, [^3H]mesulergine (1.0 nM) was incubated for 60 min at 37° C. with membranes prepared from Chinese hamster ovary cells heterologously expressing the cloned human 5-HT2C receptor according to the method of Stam et al., 1994, Eur. J. Pharmacol. 269:339-348. Various concentrations of test compound were added and bound radioactivity was determined by scintillation counting. Non-specific binding was determined in the presence of 10 μM RS102221. The Ki value for the test compound was determined using standard methods.

[8] = 30 mg/kg IP, 8 days post surgery, 30 min post treatment

CN1CC[C@]23c4c5ccc(O)c4O[C@H]2[C@@H](O)C=C[C@H]3[C@H]1C5 [morphine, reference compound]
level of antinociception, positive control ([1]; 'in these experiments'): 61±7 % MPE | level of antinociception, positive control ([1]; (+)-beloxepin experiment (FIG. 8)): 85±7 % MPE | level of antinociception, positive control ([1]; (−)-beloxepin experiment (FIG. 7)): 65±11 % MPE

Fc1ccc([C@@H]2CCNC[C@H]2COc2ccc3c(c2)OCO3)cc1 [paroxetine]
reduction in pain intensity [2]: 26%

Cc1cccc2c1Oc1ccccc1C1(O)CCN(C)CC21 (single isomer, unassigned; (-)) [(−)-beloxepin]
Ki [3]: > 10 µM | antiallodynia, % of the threshold of vehicle-treated L5 SNL rats (L5 SNL rats; [8]): 444% | antiallodynic effect (L5 SNL rats; [8]): significant antiallodynia | maximal efficacy, % of the threshold of vehicle-treated rats (L5 SNL rats; 30 mg/kg IP, 14 days post surgery): 635% | antiallodynic effect (L5 SNL rats; 30 mg/kg IP, 14 days post surgery, tested 30, 60, 120, 240 min): significant antiallodynic effects at the 30 and 60 min time points | antiallodynic effect (L5 SNL rats; 60 mg/kg PO, 7 days post-surgery, tested 30, 60, 120, 240 min): significant antiallodynic effects at the 60 and 120 minute time points | higher affinity at the NET than the (+) enantiomer ([4]; (−) vs (+) enantiomer): approximately 8 fold | Ki ([4]; membranes of CHO cells expressing hNET, read-out: NET Ki): 0.39 µM | hindpaw withdrawal threshold, % of the threshold value for vehicle treated rats ([5]; 30 minute time point): 426% | maximum hindpaw withdrawal threshold ([5]; 30 minute time point): ~19 grams | antiallodynic effect ([5]; tested 30, 60, 120, 240 min): significant antiallodynic effect at the 30 and 120 minute time point | antinociceptive activity ([1]; 30 mg/kg IP, 30, 60, 120 min): robust antinociceptive activity at 30, 60, and 120 minutes after treatment | peak antinociception ([1]; 30 mg/kg IP, 30 min post-treatment): 79±10 % MPE | Ki [6]: > 10 µM | IC50 (human recombinant CYP2D6): 4.37 µM | Ki [7]: > 10 µM

CNCCCC12CCC(c3ccccc31)c1ccccc12 [maprotiline]
reduction in pain intensity [2]: 45%
